# Assay results: paper PMC10714400, “Antimicrobial Peptide–Peptoid Hybrids with and without Membrane Disruption” (ACS Infectious Diseases, 2023)
# Read-outs that look alike come from different tables or passages of the source. Where a SMILES comes first, the peptide text is derived from it. [ ]: non-standard residue; d: D form. Nlys = NCCCCNCC(=O)O
# Legend:
# [1] = tested on: human red blood cells (hRBC); test: Minimum hemolytic concentration (MHC); format: cell-based
# Excerpt: We also measured minimal hemolysis concentrations (MHC) on human red blood cells by serial 2-fold dilution as an indication of toxicity against eukaryotic cells (Table 1).
# [2] = tested on: ZEM-1A (clinical MDR P. aeruginosa isolate)
# In short: (§1)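 MIC read visually after MTT staining: lowest compound concentration preventing visible growth (yellow wells). Inoculum ~5 × 10^5 CFU per well in MH broth; static incubation at 37 °C for ca. 18 h.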
# [3] = tested on: ZEM9A (clinical MDR P. aeruginosa isolate)
# In short: as §1
# E. coli W3110 = tested on: E. coli W3110
# In short: as §1
# E. cloacae = tested on: E. cloacae
# In short: as §1
# PA14 4.13 (phoQ) = tested on: PA14 4.13 (phoQ)
# In short: as §1
# K. pneumoniae OXA-48 = tested on: K. pneumoniae OXA-48
# In short: as §1
# PA14 2P4 (pmrB) = tested on: PA14 2P4 (pmrB)
# In short: as §1
# S. aureus COL (MRSA) = tested on: S. aureus COL (MRSA)
# In short: as §1
# [4] = Circular dichroism, α-helical content; format: physicochemical; conditions: 0.1 mg/mL; for CD %α with 5 mM DPC: 10 mM phosphate buffer pH 7.4, 5 mM DPC; for CD %α with 20% TFE: 10 mM phosphate buffer pH 7.4, 20% TFE
# S. epidermis = tested on: S. epidermis
# In short: as §1
# P. aeruginosa PA14 = tested on: P. aeruginosa PA14
# In short: as §1
# S. maltophilia = tested on: S. maltophilia
# In short: as §1
# S. aureus Newman = conditions: Newman
# In short: as §1
# B. cenocepacia = conditions: pH 7.4
# In short: as §1
# HEK293 cells = test: Cell viability assay by Alamar blue; conditions: read-out: Toxicity on HEK293 cells; CSV
# Protocol: The data are represented as the mean value ± SD, n = 3. […] (c) Vesicle leakage assay for a selection of compounds. Lipid vesicles made of EYPG or EYPC were suspended in a buffer (10 mM TRIS, 107 mM NaCl, pH 7.4). After 45 s, the indicated compound was added to reach the desired concentration. After 240 s, 30 μL of 1.2% TritonX-100 was added for full fluorescein release. […] See Supporting Information for the full curves, all of the data, and procedures.
# HEK293 cells were cultured and maintained in DMEM high glucose (Dulbecco’s modified Eagle medium, Sigma Aldrich) medium supplemented with 10% FBS (Sigma Aldrich) and 1% penicillin/streptomycin. A549 cells were cultured and maintained in RPMI-1640 medium (Sigma Aldrich), supplemented with 10% FBS (Sigma Aldrich) and 1% penicillin/streptomycin. The cells were handled and subcultured according to the manufacturer instructions. Cells were incubated in a humidified incubator at 37 °C in the presence of 5% CO2.
# Assays on HEK293, A549 cells were performed as described earlier.[74] […]
smiles,measurement,setting,value
"CC(C)C[C@H](NC(=O)[C@H](CC(C)C)NC(=O)[C@H](CC(C)C)NC(=O)[C@H](CCCCN)NC(=O)[C@H](CC(C)C)NC(=O)[C@H](CC(C)C)NC(=O)CN(CCCCN)C(=O)[C@H](CC(C)C)NC(=O)[C@H](CC(C)C)NC(=O)CN(CCCCN)C(=O)CNCCCCN)C(N)=O [EB6, kkLLkLLKLLL] (H-[Nlys][Nlys]LL[Nlys]LLKLLL-NH2)",MHC,[1],250 µg/mL
same,MHC (hemolysis),[1]; red cells of human,250 to 1000 µg/mL
same,"MIC P. aeruginosa ZEM-1A, […] MH at pH 8.5","[2]; CSV, […] MH at pH 8.5",3 ug/mL
same,"MIC P. aeruginosa ZEM-1A, full MH at pH 7.4","[2]; CSV, full MH at pH 7.4",2 ug/mL
same,MIC ZEM-1A,"[2]; MH pH 7.4, 16–20 h at 37 °C",2 µg/mL
same,MIC P. aeruginosa ZEM-1A,"[2]; Table S3, […] MH at pH 8.5",2 to 4 µg/mL
same,"MIC P. aeruginosa ZEM9A, […] MH at pH 8.5","[3]; CSV, […] MH at pH 8.5",2 ug/mL
same,"MIC P. aeruginosa ZEM9A, full MH at pH 7.4","[3]; CSV, full MH at pH 7.4",4 ug/mL
same,MIC ZEM9A,"[3]; MH pH 7.4, 16–20 h at 37 °C",4 µg/mL
same,MIC P. aeruginosa ZEM9A,"[3]; Table S3, […] MH at pH 8.5",2 µg/mL
same,"MIC E. coli W3110, […] MH at pH 7.4","E. coli W3110; CSV, […] MH at pH 7.4",2 ug/mL
same,"MIC E. coli W3110, […] MH at pH 8.5","E. coli W3110; CSV, […] MH at pH 8.5",2 ug/mL
same,"MIC E. coli W3110, full MH at pH 7.4","E. coli W3110; CSV, full MH at pH 7.4",2 ug/mL
same,MIC E. coli W3110 […] 7.4,"E. coli W3110; Table S2, […] MH, pH 7.4",2 µg/mL
same,MIC E. coli W3110 […] 8.5,"E. coli W3110; Table S2, […] MH, pH 8.5",2 µg/mL
same,MIC E. coli W3110 Full MH 7.4,"E. coli W3110; Table S2, full MH, pH 7.4",2 µg/mL
same,MIC E. coli W3110 Full MH 8.5,"E. coli W3110; Table S2, full MH, pH 8.5",8 µg/mL
same,MIC E. coli W3110 […],"E. coli W3110; diluted MH ([…] MH, pH 8.5) per Table 1 footnote b, 16–20 h at 37 °C",2 µg/mL
same,"MIC E. cloacae, full MH at pH 7.4","E. cloacae; 4 h, pH 7.4",4 ug/mL
same,MIC E. cloacae,"E. cloacae; Table S3, […] MH at pH 8.5",4 µg/mL
same,"MIC P. aeruginosa PA14 4.13, […] MH at pH 8.5","PA14 4.13 (phoQ); CSV, […] MH at pH 8.5",2 ug/mL
same,"MIC P. aeruginosa PA14 4.13, full MH at pH 7.4","PA14 4.13 (phoQ); CSV, full MH at pH 7.4",4 ug/mL
same,MIC PA14 4.13 (phoQ),"PA14 4.13 (phoQ); MH pH 7.4, 16–20 h at 37 °C",4 µg/mL
same,MIC P. aeruginosa PA14 4.13,"PA14 4.13 (phoQ); Table S3, […] MH at pH 8.5",2 µg/mL
same,"MIC K. pneumoniae OXA-48, […] MH at pH 8.5","K. pneumoniae OXA-48; CSV, […] MH at pH 8.5",8 ug/mL
same,"MIC K. pneumoniae OXA-48, full MH at pH 7.4","K. pneumoniae OXA-48; CSV, full MH at pH 7.4",8 ug/mL
same,MIC K. pneumoniae OXA-48,"K. pneumoniae OXA-48; Table S3, […] MH at pH 8.5",8 µg/mL
same,"MIC P. aeruginosa PA14 2P4, […] MH at pH 8.5","PA14 2P4 (pmrB); CSV, […] MH at pH 8.5",2 ug/mL
same,"MIC P. aeruginosa PA14 2P4, full MH at pH 7.4","PA14 2P4 (pmrB); CSV, full MH at pH 7.4",32 ug/mL
same,MIC PA14 2P4 (pmrB),"PA14 2P4 (pmrB); MH pH 7.4, 16–20 h at 37 °C",32 µg/mL
same,MIC P. aeruginosa PA14 2P4,"PA14 2P4 (pmrB); Table S3, […] MH at pH 8.5",2 µg/mL
same,"MIC S. aureus COL (MRSA), full MH at pH 7.4","S. aureus COL (MRSA); COL, 4 h, pH 7.4",8 ug/mL
same,MIC S. aureus COL (MRSA) […] 7.4,"S. aureus COL (MRSA); Table S2, […] MH, pH 7.4",2 µg/mL
same,MIC S. aureus COL (MRSA) […] 8.5,"S. aureus COL (MRSA); Table S2, […] MH, pH 8.5",2 µg/mL
same,MIC S. aureus COL (MRSA) Full MH 7.4,"S. aureus COL (MRSA); Table S2, full MH, pH 7.4",8 µg/mL
same,MIC S. aureus COL (MRSA) Full MH 8.5,"S. aureus COL (MRSA); Table S2, full MH, pH 8.5",16 µg/mL
same,CD %α with 5 mM DPC,"[4]; DichroWeb, Contin-LL",41%
same,CD %α with 20% TFE,"[4]; DichroWeb, Contin-LL",35%
same,CD %α with 5 mM DPC,[4]; Table S2,41%
same,CD %α with 20% TFE,[4]; Table S2,35%
same,"MIC S. epidermis, full MH at pH 7.4","S. epidermis; 4 h, pH 7.4",3 ug/mL
same,MIC S. epidermis,"S. epidermis; 4 h, pH 8.5",2 µg/mL
same,MIC S. epidermis,S. epidermis; pH 7.4,2 to 4 µg/mL
same,"MIC P. aeruginosa PA14, full MH at pH 7.4","P. aeruginosa PA14; PA14, 4 h, pH 7.4",3 ug/mL
same,MIC P. aeruginosa PA14,"P. aeruginosa PA14; PA14, pH 7.4",2 to 4 µg/mL
same,MIC P. aeruginosa PA14,"P. aeruginosa PA14; PA14, pH 8.5",2 µg/mL
same,"MIC S. maltophilia, full MH at pH 7.4","S. maltophilia; 4 h, pH 7.4",3 ug/mL
same,MIC S. maltophilia,"S. maltophilia; 4 h, pH 8.5",2 to 4 µg/mL
same,MIC S. maltophilia,S. maltophilia; pH 7.4,2 to 4 µg/mL
same,"MIC S. aureus Newman, full MH at pH 7.4","S. aureus Newman; 4 h, pH 7.4",8 ug/mL
same,MIC S. aureus Newman,"S. aureus Newman; 4 h, pH 8.5",2 µg/mL
same,MIC S. aureus Newman,S. aureus Newman; pH 7.4,8 µg/mL
same,"MIC B. cenocepacia, full MH at pH 7.4",B. cenocepacia; 4 h,>32 ug/mL
same,MIC B. cenocepacia,B. cenocepacia,>32 µg/mL
same,IC50,HEK293 cells,54 ± 1 µM
